Assay results reported in patent US20260364184A1, “COMPOUND BASED ON OXOISOINDOLINYL-SUBSTITUTED TETRAHYDROPYRIMIDINE-DIONE AND USE THEREOF” (GLUETACS THERAPEUTICS (SHANGHAI) CO., LTD., priority 2023, published 2026).

Legend:
[1] = test system: Human prostate cancer cell line (NCI-H358); assay: Inhibition of NCI-H358 cell proliferation (CellTiter luminescent viability); details: Table IH1, BCL-2 inhibitor-based, 96 hours; for inhibition at 0.01 µM: NCI-H358, 10 nM, read-out: Inhibition Rate at 10 nM (%); for inhibition at 0.5 µM: NCI-H358, 500 nM, read-out: Inhibition Rate at 500 nM (%)
Method: (§1) The tumor cells used herein were cultured in a cell culture medium listed in table 3 at 37 °C in an incubator with 5% CO2. Prior to experimentation, all cell lines used were correctly identified by STR profiling, and tested negative for mycoplasma contamination using a mycoplasma detection kit through routine screenings.
(§2) The IC50 values of the compounds of the present disclosure (including the compounds in Table 1, Table 2, and Examples 1-468) were determined using the CellTiter-Meiluncell Luminescent Cell Viability Assay Kit from Dalian Meilun Biotech Co., Ltd. The detailed procedure is as follows: Tumor cells were seeded in 96-well cell culture plates at the densities specified in Table 4. On the following day, the test compounds of the present disclosure were subjected to serial dilution. The dilution can be performed according to one of the following two methods: • (1) The first dilution method: The test compounds of the present disclosure (including the compounds in Table 1, Table 2, and Examples 1-468) were subjected to 5-fold serial dilutions starting from a highest concentration of 2000 μM, resulting in a total of 9 concentrations from high to low (2000, 400, 80, 16, 3.2, 0.64, 0.128, 0.0256, 0.00512 μM). Subsequently, 0.5 μL of the test compound dilution was transferred into the 96-well plate containing the cells, with each well containing 100 μL of cell culture medium. […] Into the 96-well plate, the diluted test compounds and corresponding detection reagents were added, resulting in final test compound concentrations of 500 nM and 10 nM, respectively. The experimental procedure is described below using the diluted 2 μM test compound as an example.
(§3) 0.5 μL of the aforementioned diluted compound of the present disclosure (including the compounds in Table 1, Table 2, and Examples 1-468) was added to the seeded cells in 100 μL of medium, yielding a final test compound concentration of 10 nM. After the cells were treated with the compounds of the present disclosure for a specified period, the cell viability assay reagent was added to the culture medium according to the kit's instructions to determine cell viability. […] All controls were treated using the same procedure as the compounds of the present disclosure. The growth inhibition curves for the compounds of the present disclosure were plotted using Prism GraphPad software, and the IC50 values were calculated therefrom.

[2] = test system: Human Acute T Lymphoblastic Leukemia Cells (Molt-4); assay: Inhibition of Molt-4 cell proliferation (CellTiter luminescent viability); assay type: cell-based; details: Homo sapiens, MOLT-4, 96 h, Table IH3, BCL-2 inhibitor-based, 96 hours; for inhibition at 0.01 µM: Molt-4, 10 nM, read-out: Inhibition Rate at 10 nM (%); for inhibition at 0.5 µM: Molt-4, 500 nM, read-out: Inhibition Rate at 500 nM (%)
[3] = test system: Human acute lymphocytic leukemia T lymphocytes cell line (CCRF-CEM); assay: Inhibition of CCRF-CEM cell proliferation (CellTiter luminescent viability); assay type: cell-based; details: Homo sapiens, 96 h, Table IH2, BCL-2 inhibitor-based; for inhibition at 0.01 µM: 10 nM, read-out: Inhibition Rate at 10 nM (%); for inhibition at 0.5 µM: 500 nM, read-out: Inhibition Rate at 500 nM (%)
BRM = target: T1, BRM (Homo sapiens, UniProt P51531); assay: Western blot degradation of BRM (SMARCA2); assay type: cell-based; details: Molt-4 Cell; 24 hours
T1 construct: expression of target proteins in cells; endogenous in cells
Method: (§4) Conventional Western blot assay was performed to evaluate the effects of the compounds of the present disclosure on the expression of target proteins in cells.
(§5) (1) Cell Seeding and Protein Harvesting: The selected cells were processed according to the cell seeding procedure and protein harvesting procedure in Table II-2.
(§6) (2) To the collected supernatant, 5×SDS sample loading buffer was added, followed by denaturation at 95 °C for 5 minutes. The denatured samples were then separated by SDS-PAGE electrophoresis on a polyacrylamide gel. Proteins were transferred to a nitrocellulose membrane (0.45 μm NC membrane), blocked with blocking buffer at room temperature for 1 hour, and subjected to antibody incubation and development procedures according to the antibody manufacturer's instructions (Cell Signaling Technology).
(§7) Half-Maximal Degradation Concentration value (the drug concentration required for degrading proteins by 50%, abbreviated as DC50) reads method: comparing the grayscale values of Western blot bands from drug-treated samples with those from blank DMSO-treated controls, and identifying the drug concentration range at which the grayscale value is half that of the DMSO-treated control bands.
(§8) DC50 values can be calculated using ImageJ software to measure grayscale values of Western blot bands from drug-treated samples. The concentration-response curve is fitted to estimate the drug concentration corresponding to half the grayscale value.
(§9) Target protein remaining (%) refers to the percentage of target protein remaining in cells after treatment with protein degrader compounds.
(§10) Calculation method for target protein remaining (%): Use ImageJ software to measure grayscale values of Western blot bands from drug (protein degrader)-treated samples. The grayscale value of drug-treated bands is divided by that of internal control protein bands, and the resulting quotient is normalized to obtain the relative percentage of remaining target protein after protein degrader treatment.
(§11) Target protein degradation rate (%)=1−target protein remaining (%).

BRG1 = target: T2, BRG1 (Homo sapiens, UniProt P51532); assay: Western blot degradation of BRG1 (SMARCA4); assay type: cell-based; details: Molt-4 Cell; 24 hours
T2 construct: expression of target proteins in cells; endogenous in cells
Method: as §4, §5, §6, §7, §8, §9, §10, §11

AKT = assay: Western blot degradation of AKT; assay type: cell-based; details: hPBMC Cell; 24 hours
Method: as §4, §5, §6, §7, §8, §9, §10, §11

[4] = test system: Human neuroblastoma cell line (SK-N-AS); assay: Inhibition of SK-N-AS cell proliferation (CellTiter luminescent viability); assay type: cell-based; details: Table IK1, AKT inhibitor-based, 96 hours; for inhibition at 0.01 µM: 10 nM, read-out: Inhibition Rate at 10 nM (%); for inhibition at 0.5 µM: 500 nM, read-out: Inhibition Rate at 500 nM (%)
Method: as §1, §2, §3

T1 sequence (P51531 whole entry): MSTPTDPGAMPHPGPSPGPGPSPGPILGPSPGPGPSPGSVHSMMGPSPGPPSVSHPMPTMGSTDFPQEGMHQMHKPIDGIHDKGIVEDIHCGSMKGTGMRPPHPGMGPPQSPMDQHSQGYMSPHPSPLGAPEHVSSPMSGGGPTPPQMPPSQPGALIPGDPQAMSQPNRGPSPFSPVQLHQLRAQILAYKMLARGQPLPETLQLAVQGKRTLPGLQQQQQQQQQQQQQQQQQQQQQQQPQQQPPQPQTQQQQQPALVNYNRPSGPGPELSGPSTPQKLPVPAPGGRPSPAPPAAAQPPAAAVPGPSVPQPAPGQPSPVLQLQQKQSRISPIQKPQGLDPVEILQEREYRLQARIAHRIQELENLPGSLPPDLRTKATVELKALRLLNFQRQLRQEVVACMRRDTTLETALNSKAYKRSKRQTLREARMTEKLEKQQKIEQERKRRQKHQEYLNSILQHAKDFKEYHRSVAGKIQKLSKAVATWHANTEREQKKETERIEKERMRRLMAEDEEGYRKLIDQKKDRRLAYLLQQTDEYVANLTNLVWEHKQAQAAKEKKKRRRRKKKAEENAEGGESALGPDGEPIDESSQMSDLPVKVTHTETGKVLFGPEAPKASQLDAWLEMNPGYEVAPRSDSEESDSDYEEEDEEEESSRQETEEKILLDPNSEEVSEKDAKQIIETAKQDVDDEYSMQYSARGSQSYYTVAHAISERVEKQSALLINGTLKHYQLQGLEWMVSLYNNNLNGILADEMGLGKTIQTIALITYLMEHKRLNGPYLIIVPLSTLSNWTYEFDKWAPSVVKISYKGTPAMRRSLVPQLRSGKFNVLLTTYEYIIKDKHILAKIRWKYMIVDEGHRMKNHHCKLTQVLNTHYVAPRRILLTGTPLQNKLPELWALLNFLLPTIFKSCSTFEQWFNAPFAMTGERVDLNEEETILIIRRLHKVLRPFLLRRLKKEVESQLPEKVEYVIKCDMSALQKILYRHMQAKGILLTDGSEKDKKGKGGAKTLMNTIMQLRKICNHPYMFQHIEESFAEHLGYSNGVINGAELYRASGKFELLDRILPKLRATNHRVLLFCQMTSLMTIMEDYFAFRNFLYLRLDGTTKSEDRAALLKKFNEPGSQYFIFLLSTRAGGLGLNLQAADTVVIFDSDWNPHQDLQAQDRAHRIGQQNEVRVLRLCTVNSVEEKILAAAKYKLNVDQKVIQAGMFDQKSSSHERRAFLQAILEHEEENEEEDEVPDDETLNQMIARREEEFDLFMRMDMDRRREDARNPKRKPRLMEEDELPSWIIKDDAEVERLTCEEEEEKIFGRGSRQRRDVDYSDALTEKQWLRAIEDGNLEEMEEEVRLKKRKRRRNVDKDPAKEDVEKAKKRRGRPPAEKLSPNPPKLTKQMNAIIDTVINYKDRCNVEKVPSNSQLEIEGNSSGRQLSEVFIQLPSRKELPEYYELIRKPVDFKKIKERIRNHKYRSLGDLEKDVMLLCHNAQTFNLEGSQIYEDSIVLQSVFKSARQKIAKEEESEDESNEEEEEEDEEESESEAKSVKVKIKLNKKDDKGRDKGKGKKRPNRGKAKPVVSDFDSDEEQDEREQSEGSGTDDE
T2 sequence (P51532 whole entry): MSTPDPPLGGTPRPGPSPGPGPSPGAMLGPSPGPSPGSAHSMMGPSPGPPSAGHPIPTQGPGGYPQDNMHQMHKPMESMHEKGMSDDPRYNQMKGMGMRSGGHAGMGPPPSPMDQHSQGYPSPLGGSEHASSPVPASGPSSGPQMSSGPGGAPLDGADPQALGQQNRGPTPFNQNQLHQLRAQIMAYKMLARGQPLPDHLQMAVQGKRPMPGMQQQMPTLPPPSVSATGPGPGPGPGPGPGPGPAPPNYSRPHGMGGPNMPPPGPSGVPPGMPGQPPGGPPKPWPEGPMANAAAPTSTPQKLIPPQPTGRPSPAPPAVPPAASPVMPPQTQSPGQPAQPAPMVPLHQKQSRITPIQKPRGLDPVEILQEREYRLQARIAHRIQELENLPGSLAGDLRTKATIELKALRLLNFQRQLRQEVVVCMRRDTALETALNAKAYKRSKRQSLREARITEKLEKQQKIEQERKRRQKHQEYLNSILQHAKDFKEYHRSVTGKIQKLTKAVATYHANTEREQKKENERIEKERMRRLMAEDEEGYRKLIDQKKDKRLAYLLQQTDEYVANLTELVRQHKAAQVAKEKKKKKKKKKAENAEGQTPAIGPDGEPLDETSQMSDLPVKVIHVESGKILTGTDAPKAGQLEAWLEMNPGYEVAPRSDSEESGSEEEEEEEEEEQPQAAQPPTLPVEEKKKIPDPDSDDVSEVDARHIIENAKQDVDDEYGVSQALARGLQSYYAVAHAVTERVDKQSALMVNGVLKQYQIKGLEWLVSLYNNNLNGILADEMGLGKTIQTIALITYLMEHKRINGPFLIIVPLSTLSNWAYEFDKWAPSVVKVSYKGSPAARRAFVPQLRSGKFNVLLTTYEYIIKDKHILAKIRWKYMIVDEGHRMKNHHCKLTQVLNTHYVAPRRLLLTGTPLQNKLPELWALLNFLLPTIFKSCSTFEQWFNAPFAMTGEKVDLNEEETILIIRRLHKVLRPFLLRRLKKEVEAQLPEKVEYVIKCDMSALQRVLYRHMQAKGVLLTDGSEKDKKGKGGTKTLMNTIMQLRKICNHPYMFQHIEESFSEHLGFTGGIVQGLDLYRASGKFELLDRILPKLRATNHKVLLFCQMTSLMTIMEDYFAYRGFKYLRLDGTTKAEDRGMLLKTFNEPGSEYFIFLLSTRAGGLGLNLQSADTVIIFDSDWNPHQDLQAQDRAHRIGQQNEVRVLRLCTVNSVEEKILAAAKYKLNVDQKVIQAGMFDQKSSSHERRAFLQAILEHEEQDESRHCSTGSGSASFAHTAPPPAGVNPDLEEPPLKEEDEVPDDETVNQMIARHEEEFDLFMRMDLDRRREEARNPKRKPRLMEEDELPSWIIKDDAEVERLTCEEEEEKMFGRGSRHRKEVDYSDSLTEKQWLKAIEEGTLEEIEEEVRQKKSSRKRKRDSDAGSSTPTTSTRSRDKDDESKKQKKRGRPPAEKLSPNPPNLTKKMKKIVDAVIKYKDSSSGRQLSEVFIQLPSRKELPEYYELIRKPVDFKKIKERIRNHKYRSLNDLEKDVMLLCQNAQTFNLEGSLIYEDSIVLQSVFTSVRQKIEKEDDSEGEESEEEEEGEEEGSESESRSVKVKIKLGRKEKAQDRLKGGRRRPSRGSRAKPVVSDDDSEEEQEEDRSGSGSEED

## CC1(C)CCC(CN2CCN(c3ccc(C(=O)NS(=O)(=O)c4ccc(NCC5CCOCC5)c([N+](=O)[O-])c4)c(Oc4cnc5[nH]ccc5c4)c3)CC2)=C(c2ccc(Cl)cc2)C1 [ABT-199, Venetoclax, reference compound]
[1]
  inhibition at 0.01 µM: 5 to 10%
  inhibition at 0.5 µM: 5 to 10%
[2]
  inhibition at 0.01 µM: -5 to 0%
  inhibition at 0.5 µM: 30 to 40%
[3]
  inhibition at 0.01 µM: -5 to 0%
  inhibition at 0.5 µM: -5 to 0%

## Nc1nnc(-c2ccccc2O)cc1N1CCN(Cc2ccc3c(c2)CN(N2CCC(=O)NC2=O)C3=O)CC1 [GT-04952, 1-(5-((4-(3-amino-6-(2-hydroxyphenyl)pyridazin-4-yl)piperazin-1-yl)methyl)-1-oxoisoindolin-2-yl)dihydropyrimidine-2,4 (1H,3H)-dione]
BRM
  Degradation of substrate protein BRM (substrate protein remaining %): A (0%≤substrate protein remaining %≤80%)
BRG1
  Degradation of substrate protein BRG1 (substrate protein remaining %): A (0%≤substrate protein remaining %≤80%)

## Nc1nnc(-c2ccccc2O)cc1N1CCN(CC2CCN(c3ccc4c(c3)C(=O)N(N3CCC(=O)NC3=O)C4=O)CC2)CC1 [GT-04954, 5-(4-((4-(3-amino-6-(2-hydroxyphenyl)pyridazin-4-yl)piperazin-1-yl)methyl)piperidin-1-yl)-2-(2,4-dioxotetrahydropyrimidin-1(2H)-yl)isoindoline-1,3-dione]
BRM
  Degradation of substrate protein BRM (substrate protein remaining %): A (0%≤substrate protein remaining %≤80%)
BRG1
  Degradation of substrate protein BRG1 (substrate protein remaining %): A (0%≤substrate protein remaining %≤80%)

## Nc1nnc(-c2cc(F)ccc2O)cc1N1CCN(Cc2ccc3c(c2)CN(N2CCC(=O)NC2=O)C3=O)CC1 [GT-05061, 1-(5-((4-(3-amino-6-(5-fluoro-2-hydroxyphenyl)pyridazin-4-yl)piperazin-1-yl)methyl)-1-oxoisoindolin-2-yl)dihydropyrimidine-2,4 (1H,3H)-dione]
BRM
  Degradation of substrate protein BRM (substrate protein remaining %): A (0%≤substrate protein remaining %≤80%)
BRG1
  Degradation of substrate protein BRG1 (substrate protein remaining %): B (80%<substrate protein remaining %≤100%)

## Nc1nnc(-c2cc(F)ccc2O)cc1N1CCN(CC2CCN(c3ccc4c(c3)C(=O)N(N3CCC(=O)NC3=O)C4=O)CC2)CC1 [GT-05068, 5-(4-((4-(3-amino-6-(5-fluoro-2-hydroxyphenyl)pyridazin-4-yl)piperazin-1-yl)methyl)piperidin-1-yl)-2-(2,4-dioxotetrahydropyrimidin-1(2H)-yl)isoindoline-1,3-dione]
BRM
  Degradation of substrate protein BRM (substrate protein remaining %): A (0%≤substrate protein remaining %≤80%)
BRG1
  Degradation of substrate protein BRG1 (substrate protein remaining %): B (80%<substrate protein remaining %≤100%)

## Nc1nnc(-c2cc(F)ccc2O)cc1N1CCN(CC2CCN(c3cccc4c3C(=O)N(N3CCC(=O)NC3=O)C4=O)CC2)CC1 [GT-05069, 4-(4-((4-(3-amino-6-(5-fluoro-2-hydroxyphenyl)pyridazin-4-yl)piperazin-1-yl)methyl)piperidin-1-yl)-2-(2,4-dioxotetrahydropyrimidin-1(2H)-yl)isoindoline-1,3-dione]
BRM
  Degradation of substrate protein BRM (substrate protein remaining %): A (0%≤substrate protein remaining %≤80%)
BRG1
  Degradation of substrate protein BRG1 (substrate protein remaining %): A (0%≤substrate protein remaining %≤80%)

## Nc1nnc(-c2ccccc2O)cc1N1CCN(CC2CCN(c3cccc4c3C(=O)N(N3CCC(=O)NC3=O)C4=O)CC2)CC1 [GT-05070, 4-(4-((4-(3-amino-6-(2-hydroxyphenyl)pyridazin-4-yl)piperazin-1-yl)methyl)piperidin-1-yl)-2-(2,4-dioxotetrahydropyrimidin-1(2H)-yl)isoindoline-1,3-dione]
BRM
  Degradation of substrate protein BRM (substrate protein remaining %): A (0%≤substrate protein remaining %≤80%)
BRG1
  Degradation of substrate protein BRG1 (substrate protein remaining %): B (80%<substrate protein remaining %≤100%)

## Nc1nnc(-c2ccccc2O)cc1N1CCN(Cc2ccc3c(c2)C(=O)N(N2CCC(=O)NC2=O)C3=O)CC1 [GT-05071, 5-((4-(3-amino-6-(2-hydroxyphenyl)pyridazin-4-yl)piperazin-1-yl)methyl)-2-(2,4-dioxotetrahydropyrimidin-1(2H)-yl)isoindoline-1,3-dione]
BRM
  Degradation of substrate protein BRM (substrate protein remaining %): A (0%≤substrate protein remaining %≤80%)
BRG1
  Degradation of substrate protein BRG1 (substrate protein remaining %): B (80%<substrate protein remaining %≤100%)

## CC1(C)CCC(c2ccc(Cl)cc2)=C(CN2CCN(c3ccc(C(=O)NS(=O)(=O)c4ccc(N[C@H](CCN5CC6CCC(C5)N6Cc5ccc6c(c5)CN(N5CCC(=O)NC5=O)C6=O)CSc5ccccc5)c(S(=O)(=O)C(F)(F)F)c4)cc3)CC2)C1 [GT-07813, 4-(4-((4′-chloro-4,4-dimethyl-3,4,5,6-tetrahydro-[1,1′-biphenyl]-2-yl)methyl)piperazin-1-yl)-N-((4-(((2R)-4-(8-((2-(2,4-dioxotetrahydropyrimidin-1(2H)-yl)-1-oxoisoindolin-5-yl)methyl)-3,8-diazabicyclo[3.2.1]octan-3-yl)-1-(phenylthio)butan-2-yl)amino)-3-((trifluoromethyl)sulfonyl)phenyl)sulfonyl)benzamide]
[1]
  inhibition at 0.01 µM: 15 to 20%
  inhibition at 0.5 µM: 20 to 30%
[2]
  inhibition at 0.01 µM: 10 to 15%
  inhibition at 0.5 µM: 80 to 100%
[3]
  inhibition at 0.01 µM: 5 to 10%
  inhibition at 0.5 µM: 60 to 70%

## Cn1ncc(Cl)c1-c1cc(C(=O)N[C@H](CNCc2ccc3c(c2)CN(N2CCC(=O)NC2=O)C3=O)Cc2ccc(F)c(F)c2)oc1Cl [GT-08574, (S)-5-chloro-4-(4-chloro-1-methyl-1H-pyrazol-5-yl)-N-(1-(3,4-difluorophenyl)-3-(((2-(2,4-dioxotetrahydropyrimidin-1(2H)-yl)-1-oxoisoindolin-5-yl)methyl)amino)propan-2-yl) furan-2-carboxamide]
AKT
  Degradation of substrate protein AKT (substrate protein remaining %): A (0%≤substrate protein remaining %≤80%)
[4]
  inhibition at 0.01 µM: 5 to 10%
  inhibition at 0.5 µM: 20 to 30%

## Cn1ncc(Cl)c1-c1cc(C(=O)N[C@@H](Cc2cccc(F)c2)CN2CCN(Cc3ccc4c(c3)CN(N3CCC(=O)NC3=O)C4=O)CC2)sc1Cl [GT-08576, (S)-5-chloro-4-(4-chloro-1-methyl-1H-pyrazol-5-yl)-N-(1-(4-((2-(2,4-dioxotetrahydropyrimidin-1(2H)-yl)-1-oxoisoindolin-5-yl)methyl)piperazin-1-yl)-3-(3-fluorophenyl)propan-2-yl)thiophene-2-carboxamide]
AKT
  Degradation of substrate protein AKT (substrate protein remaining %): A (0%≤substrate protein remaining %≤80%)
[4]
  inhibition at 0.01 µM: 15 to 20%
  inhibition at 0.5 µM: 20 to 30%
